Several values for one entry are separate records, joined by “and”; a condition that tells them apart may be missing. Equal values may be shown once. Read-outs that look alike come from different tables or passages of the source. One block for each compound: values may come before it. Square brackets hold non-standard residues; d marks the D form. Ends that are not written are not given here. Peptide text beside a SMILES is read from it. * marks the point of attachment. X1 = CC(=O)N[C@H]1[C@H](OCCn2cc(C*)nn2)O[C@H](CO)[C@@H](O[C@@H]2O[C@H](CO)[C@H](O)[C@H](O[C@]3(C(=O)O)C[C@H](O)[C@@H](NC(C)=O)[C@H]([C@H](O)[C@H](O)CO)O3)[C@H]2O)[C@@H]1O[C@@H]1O[C@@H](C)[C@@H](O)[C@@H](O)[C@@H]1O; Phe(4-CH2SO3H) = N[C@@H](Cc1ccc(CS(=O)(=O)O)cc1)C(=O)O
Key:
[1] = system: HECA-452, a monoclonal antibody specific to sLe^x; experiment: Glycopeptide microarray binding assay, HECA-452
Experimental: (§1) For a multi-panel experiment on a single slide, the array layout was designed using Piezoarray software according to the dimension of a standard 14-chamber adaptor. The adaptor was applied on the slide to separate a single slide to 14 chambers sealed from each other during the experiment. All glycopeptides and control samples were printed on an NHS-activated glass slide in phosphate buffer (300 mM sodium phosphates, pH 8.5). The average spot volume was within 10% variation (intra-tip) of 0.33 nL. The average spot size was 100 μm. […] These AEAB derivatives and control biotin-NHNH2, all at 50 μM concentration, were printed on the microarray as controls and reference standards. After printing, the slide was placed in a high moisture chamber at 50° C. and incubated for 1 h. The slide was subsequently washed and blocked with 50 mM ethanolamine in 0.1 M Tris buffer (pH 8.0) for 1 h, dried by centrifugation, and stored desiccated at −20° C. prior to use. […] The scanned images were analyzed using ScanArray Express software.
(§2) The binding affinity of G4 towards P-selectin was initially screened using microarray technology. G4 along with 11 additional structural variants and synthetic intermediates, as well as […] glycan standards (sLe^x, NA2, NA2,3, NA2,6, asialobiantennary, asialotetra-saccharide) were printed on an NHS-activated glass slide (FIGS. 7A-7C). The slide was then incubated with a recombinant immunoglobulin (Ig) chimera of P-sel (5 μg mL^−1) or monoclonal antibodies, PL1, specific to the N-terminal PSGL-1 peptide sequence, CHO131, specific to the Core 2 O-glycan terminated with sLe^X, or HECA-452, specific to sLe^x. The array was then washed and incubated with Alexa-488-labelled anti-human IgG antibody (5 μg/mL). […] Of note, the PL1 epitope spans residues 49-62, which includes the key sequence -L-P-E-T-E-P- (84). Thus, modification of the key T residue within the PL1 epitope alters PL1 binding, but not P-selectin binding. Binding of glycopeptide mimics was Ca2^+ dependent and inhibited by EDTA.

[2] = system: platelet-leukocyte aggregates; experiment: Platelet-leukocyte aggregation in mouse whole blood (PAR4-activating peptide), flow cytometry; format: cell-based; conditions: 120 μM
Experimental: (§3) Platelet-leukocyte aggregates were quantified in whole blood using dual-label flow cytometry (CytoFlex LX, Beckman Coulter). […] Platelet-leukocyte aggregates were quantified by two-color flow cytometry by incubating human samples with anti-CD45-APC (BD Biosciences) and anti-CD42a-FITC (BD Biosciences) and mouse samples with anti-CD45-eFluor506 (Invitrogen), anti-CD11b-APC (BD Biosciences), anti-Ly-6G-PE (BD Biosciences), and anti-CD41-FITC (BD Biosciences). […] Inhibition experiments were conducted in triplicate.
(§4) PSGL-1/P-selectin binding are responsible for the generation of platelet-leukocyte aggregates, which leads to the release of neutrophil extracellular traps and other procoagulant factors, as well as the infiltration of leukocytes (86, 87).

human P-selectin [3] = experiment: Glycopeptide microarray binding assay, P-selectin; conditions: human P-selectin 5 μg/mL; compounds at 50 μM
Experimental: as §1, §2

[4] = system: platelet-leukocyte aggregates; experiment: Platelet-leukocyte aggregation in human whole blood (PAR1-activating peptide), flow cytometry; format: cell-based; conditions: 120 μM
Experimental: as §3, §4

[5] = molecular target: T1, murine P-selectin-Fc chimera (Mus musculus, UniProt Q01102); experiment: Flow cytometry inhibition of P-selectin-Fc chimera binding to murine leukocytes; format: cell-based; conditions: P-selectin-Fc chimera 3 μg/mL
T1 construct: purchased R&D Systems

[6] = system: CHO131, a monoclonal antibody specific to the Core 2 O-glycan terminated sLe^x; experiment: Glycopeptide microarray binding assay, CHO131
Experimental: as §1
(§5) The binding affinity of G4 towards P-selectin was initially screened using microarray technology. G4 along with 11 additional structural variants and synthetic intermediates, as well as five glycan standards (sLe^x, NA2, NA2,3, NA2,6, asialobiantennary, asialotetra-saccharide) were printed on an NHS-activated glass slide (FIGS. 7A-7C). […]

[7] = system: PL1, a monoclonal antibody specific to the N-terminal PSGL-1 peptide sequence; experiment: Glycopeptide microarray binding assay, PL1
Experimental: as §1, §5

in vivo = conditions: C57BL/6, mouse, iv, 8 umol/kg
P-selectin [8] = molecular target: T2, P-selectin (Homo sapiens, UniProt P16109); conditions: literature values; cited from earlier work
T2 sequence (P16109 42-830): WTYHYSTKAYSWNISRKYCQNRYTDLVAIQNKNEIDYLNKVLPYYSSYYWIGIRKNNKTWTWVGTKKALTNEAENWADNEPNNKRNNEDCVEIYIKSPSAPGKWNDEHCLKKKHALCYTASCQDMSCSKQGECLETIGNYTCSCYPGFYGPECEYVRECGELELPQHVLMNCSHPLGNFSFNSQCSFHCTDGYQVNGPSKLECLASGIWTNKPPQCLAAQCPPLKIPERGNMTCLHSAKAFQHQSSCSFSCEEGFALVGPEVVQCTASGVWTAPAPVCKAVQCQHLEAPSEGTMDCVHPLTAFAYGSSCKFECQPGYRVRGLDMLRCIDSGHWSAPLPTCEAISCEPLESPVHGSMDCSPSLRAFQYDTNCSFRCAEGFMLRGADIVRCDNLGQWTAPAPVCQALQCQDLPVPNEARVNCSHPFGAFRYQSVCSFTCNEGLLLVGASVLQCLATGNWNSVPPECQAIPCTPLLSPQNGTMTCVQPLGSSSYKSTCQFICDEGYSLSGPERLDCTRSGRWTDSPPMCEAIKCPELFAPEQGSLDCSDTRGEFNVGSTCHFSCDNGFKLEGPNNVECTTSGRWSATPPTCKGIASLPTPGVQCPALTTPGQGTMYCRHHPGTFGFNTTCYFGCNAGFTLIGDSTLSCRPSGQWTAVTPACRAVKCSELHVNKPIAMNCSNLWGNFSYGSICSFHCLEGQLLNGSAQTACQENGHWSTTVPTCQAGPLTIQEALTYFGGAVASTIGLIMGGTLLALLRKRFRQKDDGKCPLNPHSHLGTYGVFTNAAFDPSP

human P-selectin [9] = experiment: Biacore surface plasmon resonance binding assay (biotinylated ligand captured, P-selectin-Ig flowed); conditions: human P-selectin-Ig 0.4-100 nM
Experimental: Biotinylated G4 was first captured quantitatively on a streptavidin-coated sensor chip (GE Healthcare). Different amounts of P-selectin-Ig chimera (P-Sel-Ig) were incubated in the wells (0.4-100 nM) and bound P-selectin detected using fluorescently labelled anti-human IgG. PL1 and CHO131 were used to confirm the immobilization step and to compare the relative amount of glycopeptide on the chip. Bound monoclonal antibodies and P-selectin were removed from the sensor chip by injecting 10 mM glycine-HCl, pH 2.0 and 50 mM EDTA, respectively, at 20 μL/min for 30 s. The kinetic parameters were obtained by plotting the curves using a 1:1 binding model provided by the Biacore evaluation software.

P-selectin [10] = molecular target: T2, P-selectin; conditions: reported values; cited from earlier work
venous thrombus = experiment: Murine model of non-occlusive venous thrombosis (electrolytic injury of the inferior vena cava); format: in vivo, C57BL/6 mice; conditions: 48 h after injury; glycopeptide 8 μmol/kg IV, LMWH (enoxaparin) 6 mg/kg SC

T1 sequence (Q01102 with tags, fused parts or gaps limits assumed): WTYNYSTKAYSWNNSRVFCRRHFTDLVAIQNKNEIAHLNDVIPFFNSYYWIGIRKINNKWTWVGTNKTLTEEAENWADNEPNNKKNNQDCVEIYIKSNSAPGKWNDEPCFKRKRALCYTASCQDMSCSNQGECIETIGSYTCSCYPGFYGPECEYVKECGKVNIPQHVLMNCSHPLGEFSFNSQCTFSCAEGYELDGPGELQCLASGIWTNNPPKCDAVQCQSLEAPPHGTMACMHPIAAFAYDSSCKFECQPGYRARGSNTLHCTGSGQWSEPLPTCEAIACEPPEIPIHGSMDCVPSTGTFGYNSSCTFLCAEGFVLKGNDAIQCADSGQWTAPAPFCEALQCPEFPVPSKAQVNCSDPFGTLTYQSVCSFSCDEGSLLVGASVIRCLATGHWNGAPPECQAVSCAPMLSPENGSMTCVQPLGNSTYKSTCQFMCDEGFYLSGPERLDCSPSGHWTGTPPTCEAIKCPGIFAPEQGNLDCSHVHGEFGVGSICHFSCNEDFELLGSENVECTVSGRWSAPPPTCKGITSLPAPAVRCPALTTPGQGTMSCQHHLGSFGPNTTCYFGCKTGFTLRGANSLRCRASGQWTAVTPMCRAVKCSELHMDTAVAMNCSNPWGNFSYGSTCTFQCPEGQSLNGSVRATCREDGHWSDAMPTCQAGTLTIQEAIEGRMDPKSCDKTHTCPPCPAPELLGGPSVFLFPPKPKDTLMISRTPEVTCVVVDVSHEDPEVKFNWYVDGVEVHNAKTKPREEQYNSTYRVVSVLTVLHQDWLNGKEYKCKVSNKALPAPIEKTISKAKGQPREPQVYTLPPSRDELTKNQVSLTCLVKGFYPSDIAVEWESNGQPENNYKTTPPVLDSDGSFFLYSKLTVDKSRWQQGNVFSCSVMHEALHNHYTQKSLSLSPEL

Compound: C[C@@H]1O[C@@H](O[C@@H]2[C@@H](NC(=O)c3cc(=O)[nH]c(=O)[nH]3)C[C@@H](C(=O)NCCNC(=O)COCCOCC(=O)Nc3cc(S(=O)(=O)O)cc4cc(S(=O)(=O)O)cc(S(=O)(=O)O)c34)C[C@H]2O[C@@H]2O[C@H](CO)[C@H](O)[C@H](O[C@@H](CC3CCCCC3)C(=O)O)[C@H]2OC(=O)c2ccccc2)[C@@H](O)[C@H](O)[C@@H]1O [GMI-1070]
IC50 (P-selectin [8]): 423 µM

Compound: O=C(O)c1c(O)c(C2(c3ccc(Cl)cc3)CC2)nc2c(C(F)(F)F)cccc12 [PSI-421, 2-[1-(4-chlorophenyl)cyclopropyl]-3-hydroxy-8-(trifluoromethyl)quinoline-4-carboxylic acid]
IC50 (P-selectin [8]): 225 µM

Compound: enoxaparin
venous thrombus formation / thrombus weight versus saline vehicle (venous thrombus): significant reduction

Further lines, with some results ahead:

Binding of HECA-452 on microarray [1]: strongly bound
Binding to P-selectin on microarray (human P-selectin [3]): strongly bound
IC50 ([5]; murine monocytes, read-out: IC50, P-selectin binding to murine monocytes): 10 µM
IC50 ([5]; murine neutrophils, read-out: IC50, P-selectin binding to murine neutrophils): 10 µM
Binding of CHO131 on microarray [6]: neither PL1 or CHO131 bound
Binding of PL1 on microarray [7]: neither PL1 or CHO131 bound
half-life (in vivo): 13.2 ± 5.04 min
Compound: CC(=O)N[C@H]1[C@H](OCCn2cc(CO[C@H](C)[C@H](NC(=O)[C@H](CCC(=O)O)NC(=O)[C@@H]3CCCN3C(=O)[C@H](CC(C)C)NC(=O)[C@H](Cc3ccccc3)NC(=O)[C@H](CC(=O)O)NC(=O)[C@H](Cc3ccc(CS(=O)(=O)O)cc3)NC(=O)[C@H](CC(=O)O)NC(=O)[C@H](CC(C)C)NC(=O)[C@H](Cc3ccc(CS(=O)(=O)O)cc3)NC(=O)[C@H](CCC(=O)O)NC(=O)[C@H](Cc3ccc(CS(=O)(=O)O)cc3)NC(=O)[C@H](CCC(=O)O)NC(=O)[C@H](CCCCN)NC(C)=O)C(=O)N[C@@H](CCC(=O)O)C(=O)N3CCC[C@H]3C(=O)N[C@@H](CC(C)C)C(=O)O)nn2)O[C@H](CO)[C@@H](O[C@@H]2O[C@H](CO)[C@H](O)[C@H](O[C@]3(C(=O)O)C[C@H](O)[C@@H](NC(C)=O)[C@H]([C@H](O)[C@H](O)CO)O3)[C@H]2O)[C@@H]1O[C@@H]1O[C@@H](C)[C@@H](O)[C@@H](O)[C@@H]1O [G4, KEF*EF*LDF*DFLPET(Neu5Acα2-3Galβ1-4(Fucal-3)GlcNAc)EPL] (Ac-KE[Phe(4-CH2SO3H)]E[Phe(4-CH2SO3H)]LD[Phe(4-CH2SO3H)]DFLPET(X1)EPL-OH)
Inhibition of murine platelet-monocyte aggregates [2]: 41%
Inhibition of murine platelet-neutrophil aggregates [2]: 38%
Inhibition of human platelet-monocyte aggregates [4]: 33%
Inhibition of human platelet-neutrophil aggregates [4]: 28%

Binding of HECA-452 on microarray [1]: strongly bound
Binding to P-selectin on microarray (human P-selectin [3]): strongly bound
Compound: EY*EY*LDY*DFLPET(Neu5Acα2-3Galβ1-4(Fucal-3)GlcNAcβ1-6Galβ1-3GalNAcα)EPPEM (EYEYLDYDFLPET(Neu5Acα2‑3Galβ1‑4(Fucal-3)GlcNAcβ1‑6Galβ1‑3GalNAcα)EPPEM; not fully specified (residues 2, 4, 7)) [GSP-6]

Binding of HECA-452 on microarray [1]: strongly bound
Kd (human P-selectin [9]): 0.027 µM
Binding to P-selectin on microarray (human P-selectin [3]): strongly bound
Compound: KEF*EF*LDF*DFLPET(Neu5Acα2-3Galβ1-4(Fucal-3)GlcNAcβ1-6(Galβ1-3)GalNAcα)EPL (KEFEFLDFDFLPET(Neu5Acα2‑3Galβ1‑4(Fucal-3)GlcNAcβ1‑6(Galβ1-3)GalNAcα)EPL; not fully specified (residues 3, 5, 8)) [GSnP-6, previously reported glycosulfonopeptide P-selectin antagonist, reference compound]
Kd (P-selectin [10]): 0.022 µM and 0.027 µM

Source: patent US20240293553A1, “P-SELECTIN INHIBITORS AND USES THEREOF” (Beth Israel Deaconess Medical Center, Inc., priority 2021, published 2024)
